Results from US20150064221A1, “COMPOUNDS HAVING IMMUNOMUDULATOR ACTIVITY” (priority 2012, published 2015).
“Also recorded” adds a separate entry of the source. Like-named read-outs stand apart in the source and are kept apart here.

What was measured:
[1] = Twenty-eight day toxicology study in mice; format: in vivo; conditions: 28 days, highest dose 500 mg/kg/day
Description: Twenty-eight day toxicology studies were performed in both mice and dogs with increasing concentration to achieve toxicity. The following are the results of those studies.

[2] = tested on: Peritoneal macrophages (PM); assay: Ex vivo cytokine synthesis by PM from treated mice; format: cell-based
Description: These experiments were carried out to explore if intraperitoneal (i.p.) or oral administration (p.o.) in mice with VGX-1027 could influence the proliferative response of SMNC and the production of IL-1β, IL-10, TNF-α, IFN-γ and MIF from isolated PM and SMNC. PM and SMNC isolated from mice treated in vivo with VGX-1027 for 7 consecutive days intraperitoneally (0.5 mg/mouse), or orally (2.5 mg/mouse), or isolated from control animals that received VGX-1027 vehicle (Na2HPO4/H2O), or were without any treatment. 24 h after the last VGX-1027 treatment, PM and SMNC were collected for further in vitro stimulation and analysis.

[3] = Placebo-controlled ascending multiple-dose study in healthy subjects; format: in vivo, human; conditions: for Tmax / Cmax / AUC(0-t) / AUC: human, in vivo, oral; for Cmax / AUC(0-t) / AUC: Geo Mean; for AUC(0-t): read-out: AUC (0-24); for AUC: read-out: AUC (AUC to 12 hours)
Description: A placebo-controlled, ascending multiple-dose study was also performed to evaluate the safety and pharmacokinetics of VGX-1027 in healthy human subjects. The primary outcome to be measure was the safety as determined by vital signs, physical examinations, ECGs, clinical laboratory evaluations, and adverse event reporting. The secondary outcome measured was the pharmacokinetics on day 1 and at steady state-on day 5. Study was performed upon 4 groups of subjects: group 1: 40 mg of VGX-1027 QD; group 2: 100 mg of VGX-1027 QD; group 3: 200 mg of VGX-1027 QD; group 4: 200 mg of VGX-1027 BID. The pharmacokinetics is provided in Table 7, below, along with data from the single dose study: […]

[4] = tested on: endotoxin-induced uveitis; assay: Endotoxin-induced uveitis (EIU); format: in vivo, Lewis rats
Description: Rats were treated with VGX-1027 at 30 minutes (A) and 6 and 12 hours (B) after LPS injection […]). […] were evaluated 16 hours post LPS injection. Dexamethasone (1 mg/kg) was administered as a positive control. *p<0.0001 vs. vehicle.
Chronic intraocular inflammation denotes a heterogeneous group of diseases that is a leading cause of acquired blindness in adults. Uveitis refers to inflammation of the uvea, which is the vascular tunic or middle coat of the eye, and is responsible for approximately 3% of blindness in the United States. Unlike other autoimmune conditions with known etiologies, uveitis manifests in a number of inflammatory syndromes including Crohn's disease, Behcet's disease, sarcoidosis, and others (Yeh et al., Semin. Immunopathol., (30) 145-164 (2008)). To study the possible utility of VGX-1027 in treating ocular inflammatory conditions, we injected LPS into footpads of Lewis Rats to induce uveitis. After 16 hours post LPS injection, the rats were sacrificed, and their eyes and aqueous humor were collected to study serological, immunological, and histological signs of EIU. The development of EIU was graded on the following scale: (0) no inflammatory reaction; (1) discrete dilatation of the iris and conjunctival vessels; (2) moderate dilatation of the iris and conjunctival vessels; (3) intense iridal hyperaemia with flare in anterior chamber; and (4) same clinical signs as grade 3 plus the presence of fibrinous exudate in the pupillary area with intense flare in the anterior chamber.

[5] = tested on: Peritoneal macrophages (PM); assay: In vitro cytokine synthesis by peritoneal macrophages; format: cell-based, mice
Description: Peritoneal macrophages (PM) and splenic mononuclear cells (SMNC) were isolated from normal mice, cultured in nutrient medium and stimulated with LPS and/or ConA in the absence or presence of VGX-1027. […] VGX-1027 had no effect on MIF expression in either cell type, on proliferation of SMNC, and on IL-10 and Interferon (IFN) γ production by SMNC.

[6] = tested on: type II collagen-induced arthritis; assay: Type II collagen-induced arthritis (CIA); format: in vivo, mice
Description: VGX-1027 was administered intraperitoneally and were measured for an arthritic score (A), cumulative arthritic score (B), hind paws edema (C), and histological score (D) were measured. Data are shown as mean values±SD form 2 independent experiments. Statistical analysis was performed by Student's t test. *p<0.0001 was taken as significant.
To induce CIA, the mice were injected intradermally at the base of the tail with […] of an emulsion containing […] of CII, and were boosted on day 21. In terms of treatment, VGX-1027 was used only as a “therapeutic” regime by administering the drug via intraperitoneal administration to mice with a clinical score equal or higher than 1. The mice were treated with vehicle, dexamethasone (0.3 mg/kg), or VGX-1027 (0.5 mg/mouse) for 10 consecutive days. The mice were assessed with the following scoring system: 0=no signs of arthritis; 1=swelling and/or redness of the paw or 1 digit; 2=involvement of 2 joints; 3=involvement of N2 joints, and 4=severe arthritis of the entire paw and digits. An arthritis index was calculated for each mouse by summing the scores for the individual paws. Other clinical severity measures were hind paw volume and histological assessment of damage; the latter was measured with the following criteria: 0=no damage; 1=edema; 2=presence of inflammatory cells; and 3-bone resorption.

Rising MTD study in mice = conditions: mouse, in vivo, 1000 mg/kg/day, read-out: Approximate Cmax
Description: (Approximate Cmax@ [1000 mg/kg/day] was […]). Based on these studies, 10 mg was determined to be a safe starting dose in the human study.

[7] = 100 mg, Multiple Dose (Day 1) 100 mg
[8] = 100 mg, Multiple Dose (Day 5) 100 mg
[9] = 200 mg, 200 mg BID, first dose, Day 1
[10] = 200 mg, 200 mg BID, first dose, Day 5
[11] = 200 mg, Multiple Dose (Day 1) 200 mg
[12] = 200 mg, Multiple Dose (Day 5) 200 mg

O=C(O)CC1CC(c2ccccc2)=NO1 (stereo not drawn) [VGX-1027, 3-phenyl-4,5-dihydro-5-isoxazoleacetic acid]
toxicology findings [1]: notable changes found in kidneys, liver, spleen, testis, epidydimus and bladder
IL-10 synthesis ([2]; mice treated 7 days): impaired synthesis
TNF-α synthesis ([2]; mice treated 7 days): impaired synthesis
IL-1 β synthesis ([2]; mice treated 7 days i.p. 0.5 mg/mouse or orally 2.5 mg/mouse): impaired synthesis
MIF expression ([2]; mitogenic stimulation): normal pattern
urine drug levels ([3]; CAT002 urine PK analysis): high drug levels in urine
Tmax [3, 7]: 1 h
Cmax [3, 7]: 7570 ng/mL
AUC(0-t) [3, 7]: 31300 ng·h/mL
Tmax [3, 8]: 1.5 h
Cmax [3, 8]: 6760 ng/mL
AUC(0-t) [3, 8]: 23200 ng·h/mL
Tmax [3, 9]: 1 h
Cmax [3, 9]: 13100 ng/mL
AUC [3, 9]: 58200 ng·h/mL
Tmax [3, 10]: 1.5 h
Cmax [3, 10]: 16800 ng/mL
AUC [3, 10]: 70400 ng·h/mL
Tmax [3, 11]: 1.3 h
Cmax [3, 11]: 15700 ng/mL
AUC(0-t) [3, 11]: 78100 ng·h/mL
Tmax [3, 12]: 2 h
Cmax [3, 12]: 14100 ng/mL
AUC(0-t) [3, 12]: 65700 ng·h/mL
dosing toxicities ([3]; up to 200 mg bid for 5 days): No dosing toxicities were observed
inflammatory cytokines in the aqueous humor ([4]; LPS-induced increase): decreased
protein in the aqueous humor ([4]; LPS-induced increase): decreased
clinical inflammation score ([4]; administered 30 minutes after LPS): significantly lower
clinical inflammation grade ([4]; administered 12 hours post LPS): not observed
infiltration of cells into the iris ciliary body ([4]; rat, in vivo): decreased
IL-1 β production [5]: inhibited
IL-10 production [5]: inhibited
MIF expression [5]: no effect
TNF-α production ([5]; LPS and/or ConA stimulated): markedly inhibited
hind paw volume ([6]; after 3 days of therapy): significant decreases
mean arthritic score ([6]; after 3 days of therapy): significant decreases
inflammation via histological measurement ([6]; mouse, in vivo): improvements
clinical features of CIA ([6]; therapeutic, i.p. 0.5 mg/mouse, 10 days): attenuated; also recorded: comparable to the amount observed with dexamethasone
Cmax (Rising MTD study in mice): ~400000 ng/mL
